In patent US12629370B2, “Treatment of prostate cancer” (Sumitomo Pharma Co., Ltd., priority 2016, dated 2026):
Values joined by “and” are separate entries in the source; they are usually repeats but may differ in a detail not shown here. Equal entries are not always repeated. “Also recorded” adds a separate entry of the source. Where two headings read alike, the source gives them in different places.

Assays:
[1] = system: serum testosterone; experiment: Example 6: serum testosterone (CLIA) in men with non-metastatic prostate cancer, Parts A and B; type: in vivo, human
[2] = FIG. 23
Description: Table printed on a drawing sheet, FIG. 23
First reader's note: The rows 'Plasma' and 'Urine' are section heads (matrix); the sheet explains neither the footnote marks a and b nor the values in brackets.

[3] = system: serum LH; experiment: Example 7: serum LH in healthy men; type: in vivo, human
Experimental: (§1) FSH, DHT, and insulin-like growth factor 1 (IGF-1; Parts 3 and 4 only) were measured in a subset of samples. Serum testosterone was assayed using a conventional immunoassay for screening (LLOQ=0.4 nmol/L). A validated LC/MS/MS method, with an LLOQ of 0.173 nmol/L and a ULOQ of 10.425 nmol/L, was used for all subsequent baseline (i.e., the subject's serum hormone levels prior to treatment commencing) and postdose measurements.

[4] = system: rats; details: rat, in vivo
[5] = system: LH; experiment: Example 9: LH; type: in vivo, human
Experimental: Eligible male patients were aged ≥18 years with a histologically confirmed diagnosis of localized, intermediate-risk prostate cancer, for whom 6-month neoadjuvant and adjuvant androgen deprivation therapy (ADT) to external beam radiation therapy (EBRT) was indicated. The criteria for establishing intermediate-risk prostate cancer included the presence of one of the following, without any high-risk feature: T2b-T2c disease, Gleason score 7, or prostate-specific antigen (PSA) 10-20 ng/mL. […] Based on investigator discretion and clinical assessment of the patient's overall medical and disease status, participation was allowed for older patients with high-risk disease (e.g., based on Gleason score or tumor status) who were deemed likely to benefit from 6 months of neoadjuvant/adjuvant ADT.
Both treatment arms received treatment for 24 weeks. […] EBRT began no later than day 1, week 17.
Patients were evaluated every 4 weeks during the treatment period (including day 1, week 25), at end of treatment (defined as week 29), during follow-up (week 33), and at end of study (EOS).
Samples for testosterone, luteinizing hormone (LH), FSH, and PSA concentrations were taken at screening, on day 1 of the first week (additionally days 2 and 4 for testosterone and LH), and on day 1 of weeks 2, 3, 5, 9, 13, 17, 21, 25, 29, 33, and 37 thereafter.

[6] = Example 7: single and multiple dose pharmacokinetics and food effect in healthy men; type: in vivo, human; details: for half-life: read-out: mean plasma T1/2 (converted)
Experimental: Samples were analyzed using validated liquid chromatography with tandem mass spectrometry (LC/MS/MS) methods. The LLOQ was 0.0100 ng/ml for plasma and 0.500 ng/ml for urine.
Then, a formal assessment was performed using both analysis of variance (ANOVA) and power model approaches. […] In Part 2, steady state attainment was determined based on visual inspection of mean observed predose plasma concentration during multiple dosing (Ctrough) versus time profiles at each dose level. Noncompartmental analysis of Part 3 and 4 data were not planned given the limited number of postdose samples collected per subject on Days 1 and 28.

[7] = system: serum testosterone; experiment: Example 7: serum testosterone lowering in healthy men; type: in vivo, human; details: for mean serum testosterone at end of 16 days: baseline 10.40 nmol/L
Experimental: as §1
Pharmacodynamic measures included serum concentrations of testosterone, DHT, LH, and FSH. In Part 2, the number and percentage of subjects with average serum testosterone levels less than 0.69 nmol/L occurring during the second week of dosing were tabulated. In Parts 3 and 4, the number and percentage of subjects with serum testosterone levels consistently less than 0.69 nmol/L from Day 14 through Day 28 were tabulated.

[8] = system: serum PSA; experiment: Example 6: serum PSA (CLEIA); type: in vivo, human
Experimental: This study consisted of two parts: Part A, a dose-rising phase, and Part B, an expansion phase. Whether or not the study would proceed to the next cohort or to Part B was determined through assessment of tolerability at the present dose, based on the incidence of adverse effects during the evaluation period.
Subjects in Cohort 1 received a load dose of 320 mg and a maintenance dose of 80 mg; subjects in Cohort 2 received a load dose of 320 mg and a maintenance dose of 120 mg; subjects in Cohort 3 received a load dose of 320 mg and a maintenance dose of 160 mg; and subjects in Cohort 4 received a load dose of 360 mg and a maintenance dose of 120 mg.
In addition to the safety assessments, efficacy assessments were also performed according to the study schedule, and the Compound 1 formulation was administered until each subject met the discontinuation criteria.

[9] = system: serum DHT; experiment: Example 7: serum DHT in healthy men; type: in vivo, human
Experimental: as §1

[10] = system: healthy men; experiment: Example 7: safety and tolerability in healthy men
Experimental: The 40 mg dose was administered once per day with a single load dose of 360 mg on Day 1 of the 14 days of treatment administration. For the 20 mg dosages, one 20 mg dose was administered with loading doses of 320 mg on Day 1, 240 mg on Day 2, and 160 mg on Day 3, and the other 20 mg dose was administered with loading doses of 320 mg on Day 1 and 160 mg on Day 2. […] The 40 mg dose was administered with loading doses of 320 mg and 160 mg on Days 1 and 2 of treatment, respectively.

[11] = FIG. 20
[12] = Part A Day 28, Cohort 1 (320 mg load, 80 mg QD)
[13] = Part A Day 28, Cohort 2 (320 mg load, 120 mg QD)
[14] = Part A Day 28, Cohort 3 (320 mg load, 160 mg QD)
[15] = Part B Week 13 Day 1 (LOCF), 120 mg group

CONC(=O)Nc1ccc(-c2sc3c(c2CN(C)C)c(=O)n(-c2ccc(OC)nn2)c(=O)n3Cc2c(F)cccc2F)cc1 [Compound 1, N-(4-(1-(2,6-difluorobenzyl)-5-((dimethylamino)methyl)-3-(6-methoxy-3-pyridazinyl)-2,4-dioxo-1,2,3,4-tetrahydrothieno[2,3-d]pyrimidin-6-yl)phenyl)-N′-methoxyurea]
time for mean serum testosterone to fall below medical castration levels (below 50 ng/dL) ([1]; Part A, load dose then maintenance 80, 120 or 160 mg QD): up to 3 days | when serum testosterone achieved medical castration levels in all subjects ([1]; Part A, maintained up to 3 days after last dose on Day 28): between Day 2 and Day 14 | time for mean serum testosterone to be suppressed below medical castration levels (below 50 ng/dL) ([1]; Part B, 320 mg load then 80 or 120 mg QD): ≤ 4 days | when serum testosterone reached medical castration levels in all subjects ([1]; Part B, maintained throughout evaluation period): between Day 2 and Week 3 | CLr (L/h) [2]: 6.92 (29.5) L/h and 5.51 (26.7) L/h and 6.42 (25.0) L/h and 7.66 (17.4) L/h and 7.43 (16.2) L/h | Fe (%) [2]: 1.44 (31.8) % and 1.35 (40.0) % and 1.76 (38.6) % and 1.89 (20.2) % and 2.88 (45.6) % | t1/2(h) [2]: 50.6 (20.2) h and 49.4 (30.6) h and 36.5 (17.4) h | mean serum LH at end of 16 days ([3]; Part 2, 80 mg, baseline 4.57 IU/L): 0.33 IU/L | mean serum LH at end of 16 days ([3]; Part 2, 180 mg, baseline 3.90 IU/L): 0.23 IU/L | adverse effect observed in non-clinical toxicity studies [4]: phospholipidosis | Median LH ([5]; Baseline): 4.7 mlU/mL | Median LH ([5]; Week 24): 0.1 mlU/mL | mean LH level ([5]; Week 25, Day 1): 0.325 IU/L | Median LH ([5]; Week 28/EOT visit): 3.1 mlU/mL | Median LH ([5]; Week 32/follow-up): 8.3 mlU/mL | Median LH ([5]; Week 36/EOS): 10.7 mlU/mL | decrease in mean Cmax and mean plasma AUC0-∞ on co-administration with food versus fasting ([6]; 180 mg single dose): approximately 50% | median Tmax, fasting conditions ([6]; 180 mg single dose): 1.75 h | median Tmax, fed conditions ([6]; 180 mg single dose, high fat breakfast): 5.00 h | decrease in mean plasma AUC (systemic exposure), dosing 30 min before standardized meal versus fasted ([6]; 180 mg, Part 2 Day 1 versus Part 1 fasted): approximately 28% | dose proportionality of mean Cmax at steady state ([6]; 20 to 180 mg QD): increased slightly more than dose-proportionately | dose proportionality of mean plasma AUC0-tau at steady state ([6]; 20 to 180 mg QD): increased in a dose-proportional manner | median Tmax ([6]; across all doses studied): ~2 h | Compound 1 excreted unchanged in urine ([6]; after single and repeat dosing): Less than 4% | Tmax ([6]; male, human, plasma, oral, 180 mg single dose, high fat breakfast, read-out: median Tmax, fed conditions): 5 h | half-life ([6]; male, human, plasma, oral, across the 20 to 180 mg QD dose range): 36 to 65 h | half-life ([6]; male, human, plasma, oral, repeat dosing, 20 mg QD): 64.5 h | half-life ([6]; male, human, plasma, oral, repeat dosing, 180 mg QD): 35.8 h | dose proportionality of mean Cmax and mean plasma AUC0-∞ ([6]; single doses of 80 mg to 360 mg): dosed proportionally over 80-360 mg range; also recorded: approximate dose-proportional increases | increase in systemic exposure following QD dosing ([6]; steady state): approximately 2 fold | suppression of serum LH and testosterone during the second week ([7]; 20 mg QD, 14 days): insufficient in maintaining adequate suppression | castration outcome ([7]; 40 mg QD, 28 days): ineffective in maintaining castration between Days 14 and 28 | castration outcome ([7]; 60 mg QD, 28 days): intermediate to those of 40 and 80 mg | time to reach castrate level ([7]; 80 mg once daily): up to 21 days | castration outcome ([7]; 320 mg day 1, 160 mg day 2, 40 mg day 3 to 28): did not maintain castrate level | castration outcome ([7]; 360 mg Day 1 and 40 mg day 2 to 14): rapid castration level and sustained castration level | time to castrate levels (<50 ng/dL) ([7]; 360 mg single dose): ≤ 24 h | effective medical castration ([7]; 40 to 180 mg daily (14 days) and 80 to 160 mg daily (28 days)): consistently achieved | profound castration threshold (average serum testosterone <0.69 nmol/L) ([7]; 14 days at 40, 80 and 180 mg): achieved | castration during third and fourth weeks ([7]; 28 days, 160 mg (Part 3) and 80 mg (Part 4)): effective at achieving medical (<1.73 nmol/L) and profound (<0.69 nmol/L) castration | mean serum testosterone at end of 16 days ([7]; Part 2, 80 mg): 0.3565 nmol/L | mean serum testosterone at end of 16 days ([7]; Part 2, 180 mg): 0.4320 nmol/L | minimal fully effective / recommended maintenance dose for sustained medical castration ([7]; in vivo): ≥ 80 mg QD | effective medical castration ([7]; maintenance doses of 80, 160 and 180 mg QD): consistently achieved | duration of mean serum testosterone suppression ([7]; single doses of 80, 120, 180 and 360 mg): maintained through 36 hours postdose | mean percentage change from baseline in serum PSA [8, 12]: −76.37% | median percentage change from baseline in serum PSA [8, 12]: −77.50% | mean percentage change from baseline in serum PSA [8, 13]: −60.10% | median percentage change from baseline in serum PSA [8, 13]: −72.30% | mean percentage change from baseline in serum PSA [8, 14]: −32.10% | median percentage change from baseline in serum PSA [8, 14]: −50.50% | median percentage change from baseline in serum PSA ([8]; Part B Week 13 Day 1 (LOCF), 80 mg group): −97.20% | mean percentage change from baseline in serum PSA [8, 15]: −93.11% | median percentage change from baseline in serum PSA [8, 15]: −95.80% | time postdose at which mean serum DHT began to decrease ([9]; Part 1 single doses 80-360 mg): 2 h | mean serum dihydrotestosterone at end of 16 days ([9]; Part 2, 80 mg, baseline 1.883 nmol/L): 1.095 nmol/L | mean serum dihydrotestosterone at end of 16 days ([9]; Part 2, 180 mg, baseline 1.882 nmol/L): 0.865 nmol/L | most common treatment emergent adverse events ([10]; across all dose cohorts): bradycardia, hot flush, and headache | changes in QT/QTc intervals ([10]; in vivo): consistent with those described in the literature with other medical castration agents | most common drug-related TEAE ([10]; in vivo): hot flash | overall safety and tolerability ([10]; single and multiple doses): safe and well tolerated | deaths, SAEs or severe AEs ([10]; single dose or multiple dose for 14 or 28 days): no deaths, serious adverse events (SAEs), or severe AEs | transaminases ([10]; without symptoms or changes in total bilirubin): Mild to moderate transaminase elevations | CLr (L/h) [11]: 7.57 (13.4) L/h and 8.11 (12.7) L/h and 9.24 (10.0) L/h and 8.64 (10.8) L/h | Fe (%) [11]: 2.95 (41.5) % and 2.05 (33.4) % and 1.46 (38.7) % | t1/2(h) [11]: 20.8 (5.2) h and 21.3 (20.0) h and 21.7 (8.9) h
